One data set concerns MCF-10A. As to the kind of experiment: MTT assay, cytotoxicity toward MCF-10A. In kind it is cell-based. Conditions: Homo sapiens. The method, then: The developed compounds were evaluated in vitro using the MTT cell viability assay following the published techniques (Supplementary Data, page 42). […]
(§1) The 96 well tissue culture plate was seeded with 1 X 10^5 cells / ml (100 ul / well) and cultured at 37 degrees Celsius for 24 hours to form a full monolayer sheet. After forming a confluent sheet of cells, growth medium was decanted from 96 well micro titer plates, the cell monolayer was washed twice with wash media, and two-fold dilutions of the tested sample were prepared in RPMI medium with 2% serum (maintenance medium). In each well, 0.1 ml of each dilution was examined, with three wells serving as controls and receiving only maintenance media.
(§2) The plate was incubated at 37 degrees Celsius and then analyzed. Cells were examined for any physical evidence of toxicity, such as partial or total monolayer loss, rounding, shrinkage, or cell granulation. MTT solution (5mg/ml in PBS) was prepared (BIO BASIC CANADA INC), and 20ul MTT solution was added to each well. Shake the MTT into the medium for 5 minutes at 150rpm on a shaking table. Incubate for 4 hours (37°C, 5% CO2) to allow the MTT to be digested. Remove the media. (If required, dry plate on paper towels to remove residue. In 200ul DMSO, resuspend formazan (MTT metabolic product). Shake at 150rpm for 5 minutes to properly mix the formazan into the solvent. At 560nm, measure optical density and subtract background at 620nm. The optical density should be proportional to the number of cells. MCF-7 and MCF-10A cell lines were provided with 10% fetal bovine serum (FBS, Sigma-Aldrich, MO, USA). Data are presented as the mean of the IC50 values ± SD from three different experiments. […]
(Tetrazolium assays rely on reduction of a dye to a coloured formazan, in cell work by metabolically active cells.)

Another data set addresses VEGFR-2 (Homo sapiens, UniProt P35968). Put plainly: In vitro VEGFR-2 kinase inhibition assay. In kind it is biochemical. The following applies: mean ± SD of three experiments.
Another data set relates to MCF-7 breast cell line. Put plainly: MTT assay, anti-proliferative activity toward MCF-7. It is filed as cell-based. Conditions: Homo sapiens, MCF7. As for the experimental part:
. The developed compounds were evaluated in vitro using the MTT cell viability assay following the published techniques (Supplementary Data, page 42). […]
as §1, §2

For the next data set, the system named is MCF-7 cell line. Conditions: cited from earlier work.
Setting [1] is: MTT assay, mean ± SD of three experiments, read-out: IC50.
Where [2] appears, read: MCF-7 cell line, MTT assay, mean ± SD of three experiments, read-out: IC50.

This is an account of results in publication PMC10892120, “Design, Synthesis and Biological Assessment of N′-(2-Oxoindolin-3-ylidene)-6-methylimidazo[2,1-b]thiazole-5-carbohydrazides as Potential Anti-Proliferative Agents toward MCF-7 Breast Cancer” (Pharmaceuticals, 2024).

Read-outs that look alike come from different tables or passages of the source. Some results are limits rather than exact numbers.

VEGFR-2, sequence (P35968 20-1356): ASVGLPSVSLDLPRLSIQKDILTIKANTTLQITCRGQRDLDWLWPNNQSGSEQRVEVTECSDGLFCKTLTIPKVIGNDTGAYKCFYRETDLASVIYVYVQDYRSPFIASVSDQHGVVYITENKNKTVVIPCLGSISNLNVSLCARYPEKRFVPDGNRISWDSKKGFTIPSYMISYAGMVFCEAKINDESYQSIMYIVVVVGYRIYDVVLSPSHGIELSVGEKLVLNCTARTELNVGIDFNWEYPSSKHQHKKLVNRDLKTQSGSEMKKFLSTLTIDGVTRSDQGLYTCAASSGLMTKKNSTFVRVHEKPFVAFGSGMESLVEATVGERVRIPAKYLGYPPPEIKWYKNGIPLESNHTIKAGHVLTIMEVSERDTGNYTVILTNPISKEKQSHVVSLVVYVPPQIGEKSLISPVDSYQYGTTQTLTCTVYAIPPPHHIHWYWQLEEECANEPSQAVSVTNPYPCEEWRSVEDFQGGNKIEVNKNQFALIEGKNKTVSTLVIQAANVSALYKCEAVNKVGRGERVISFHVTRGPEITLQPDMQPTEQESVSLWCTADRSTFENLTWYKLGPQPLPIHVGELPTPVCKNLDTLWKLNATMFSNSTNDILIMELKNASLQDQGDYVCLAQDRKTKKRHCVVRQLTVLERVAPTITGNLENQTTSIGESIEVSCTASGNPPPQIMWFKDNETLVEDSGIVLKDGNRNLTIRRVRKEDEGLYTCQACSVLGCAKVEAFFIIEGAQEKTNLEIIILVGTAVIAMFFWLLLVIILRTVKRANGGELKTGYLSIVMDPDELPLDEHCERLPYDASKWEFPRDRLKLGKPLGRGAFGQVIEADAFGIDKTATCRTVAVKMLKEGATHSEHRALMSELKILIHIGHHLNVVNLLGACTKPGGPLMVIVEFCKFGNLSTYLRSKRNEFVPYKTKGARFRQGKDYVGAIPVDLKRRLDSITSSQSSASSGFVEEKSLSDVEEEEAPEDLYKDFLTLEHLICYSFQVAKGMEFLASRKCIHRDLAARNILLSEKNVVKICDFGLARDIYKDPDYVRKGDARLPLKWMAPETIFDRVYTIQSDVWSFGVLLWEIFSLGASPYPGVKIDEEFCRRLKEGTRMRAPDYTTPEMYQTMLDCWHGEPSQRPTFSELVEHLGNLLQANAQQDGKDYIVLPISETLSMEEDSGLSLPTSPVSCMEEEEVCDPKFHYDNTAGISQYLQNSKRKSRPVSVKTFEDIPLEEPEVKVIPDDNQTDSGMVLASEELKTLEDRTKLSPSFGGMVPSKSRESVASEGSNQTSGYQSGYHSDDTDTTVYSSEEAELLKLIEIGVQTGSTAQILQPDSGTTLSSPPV

The melting point is the temperature, or range, at which the solid turns liquid. In general, IC50 refers to the concentration at which inhibition is half-maximal. Compound `Cc1nc2sccn2c1C(=O)NN=C1C(=O)Nc2ccc(F)cc21` [Compound 6b, N′-(5-Fluoro-2-oxoindolin-3-ylidene)-6-methylimidazo[2,1-b]thiazole-5-carbohydrazide] yielded a melting point above 300 °C. The IC50 with MCF-10A (setting [1]) is 125 ± 2.7 µM. At VEGFR-2, this compound gave an IC50 of 3850 ± 150 nM. Moreover, the IC50 in the data set with MCF-7 breast cell line (setting [2]) was 11.5 ± 0.52 µM.
Consider `CCCCN1C(=O)C(=NNC(=O)c2c(C)nc3sccn23)c2cc(Cl)ccc21` [Compound 6k, N′-(1-Butyl-5-chloro-2-oxoindolin-3-ylidene)-6-methylimidazo[2,1-b]thiazole-5-carbohydrazide], for which the melting point lay within 224 to 225 °C. In addition, the IC50 in the data set on MCF-7 breast cell line is 42.7 ± 2.01 µM.
In turn, `Cc1nc2sccn2c1NC(=O)Nc1ccc(F)cc1` [Compound 8d, 1-(4-Fluorophenyl)-3-(6-methylimidazo[2,1-b]thiazol-5-yl)urea] showed a melting point of 281 to 282 °C. Moreover, the IC50 in the data set with MCF-7 breast cell line (setting [2]) stood at 72.3 ± 4.71 µM.
Compound `CCCN1C(=O)C(=NNC(=O)c2c(C)nc3sccn23)c2cc(Cl)ccc21` [Compound 6g, N′-(5-Chloro-2-oxo-1-propylindolin-3-ylidene)-6-methylimidazo[2,1-b]thiazole-5-carbohydrazide] had a melting point of 254 to 255 °C. The compound also came in with an IC50 in the data set on MCF-7 breast cell line of 52.5 ± 1.26 µM.
On to `COc1cc(C(=O)/C=C/c2c(C(F)(F)F)nc3sccn23)cc(OC)c1OC` [IX], for which the IC50 in the data set on MCF-7 cell line (MCF-7 cell line) was 794 nM.
As to `CNC(=O)c1cc(Oc2ccc(NC(=O)Nc3ccc(Cl)c(C(F)(F)F)c3)cc2)ccn1` [Sorafenib (I), Sorafenib, reference compound], the results for the IC50 with MCF-10A (setting [1]) and in the data set with MCF-7 breast cell line (setting [2]) were 22.4 ± 1.29 µM and 7.55 ± 0.4 µM, respectively.
Turning to `Cc1ccc(NC(=O)Nc2c(C)nc3sccn23)cc1` [Compound 8b, 1-(6-Methylimidazo[2,1-b]thiazol-5-yl)-3-(p-tolyl)urea], the melting point fell in the range of 282 to 283 °C. Further, the IC50 with MCF-7 breast cell line (setting [2]) was 115 ± 4.99 µM.
The corresponding values for `Cc1nc2sccn2c1C(=O)NN=C1C(=O)Nc2ccccc21` [Compound 6a, 6-Methyl-N′-(2-oxoindolin-3-ylidene)imidazo[2,1-b]thiazole-5-carbohydrazide] are above 300 °C and 24 ± 0.67 µM.
The compound `COc1ccc(NC(=O)Nc2c(C)nc3sccn23)cc1` [Compound 8c, 1-(4-Methoxyphenyl)-3-(6-methylimidazo[2,1-b]thiazol-5-yl)urea] showed a melting point of 284 to 285 °C. Moreover, the IC50 in the data set on MCF-7 breast cell line (setting [2]) came out at 106 ± 5.32 µM.
As for `CCCN1C(=O)C(=NNC(=O)c2c(C)nc3sccn23)c2cc(Br)ccc21` [Compound 6h, N′-(5-Bromo-2-oxo-1-propylindolin-3-ylidene)-6-methylimidazo[2,1-b]thiazole-5-carbohydrazide], the melting point lay within 261 to 262 °C. Besides, in the data set on MCF-7 breast cell line, it took 74.3 ± 2.19 µM to reach half-maximal inhibition (IC50).
`Cc1nc2sccn2c1NC(=O)Nc1ccccc1` [Compound 8a, 1-(6-Methylimidazo[2,1-b]thiazol-5-yl)-3-phenylurea] showed a melting point of 287 to 288 °C. Moreover, the IC50 in the data set with MCF-7 breast cell line (setting [2]) worked out at 110 ± 4.62 µM.
Compound `Cc1nc2sccn2c1NC(=O)Nc1ccc(Br)cc1` [Compound 8f, 1-(4-Bromophenyl)-3-(6-methylimidazo[2,1-b]thiazol-5-yl)urea] showed a melting point of 288 to 289 °C. Further, the IC50 in the data set with MCF-7 breast cell line (setting [2]) came out at 31.1 ± 2.47 µM.
The compound `CCCCN1C(=O)C(=NNC(=O)c2c(C)nc3sccn23)c2cc(F)ccc21` [Compound 6j, N′-(1-Butyl-5-fluoro-2-oxoindolin-3-ylidene)-6-methylimidazo[2,1-b]thiazole-5-carbohydrazide] displayed a melting point of 237 to 238 °C. For the same compound, the IC50 in the data set with MCF-10A was found to be 47.7 ± 0.53 µM. Inhibition at VEGFR-2 was half-maximal at 1510 ± 60 nM (IC50). For the same compound, in the data set with MCF-7 breast cell line, inhibition was half-maximal at 11.7 ± 0.52 µM (IC50).
As for `Cc1nc2sccn2c1NC(=O)Nc1ccc(S(N)(=O)=O)cc1` [Compound 8g, 4-(3-(6-Methylimidazo[2,1-b]thiazol-5-yl)ureido)benzenesulfonamide], the melting point is 283 to 284 °C. Moreover, the IC50 with MCF-7 breast cell line (setting [2]) came out at 41.6 ± 1.59 µM.
For the compound `CCCN1C(=O)C(=NNC(=O)c2c(C)nc3sccn23)c2cc(F)ccc21` [Compound 6f, N′-(5-Fluoro-2-oxo-1-propylindolin-3-ylidene)-6-methylimidazo[2,1-b]thiazole-5-carbohydrazide], the melting point was 243 to 244 °C. Besides, the IC50 in the data set on MCF-7 breast cell line is 82.5 ± 2.75 µM.
As for `Cc1nc2sccn2c1C(=O)NN=C1C(=O)Nc2ccc(Br)cc21` [Compound 6d, N′-(5-Bromo-2-oxoindolin-3-ylidene)-6-methylimidazo[2,1-b]thiazole-5-carbohydrazide], the melting point lay within 296 to 297 °C. Further, in the data set on MCF-7 breast cell line (setting [2]), the IC50 worked out at 22.8 ± 1.38 µM.
Take `CCCN1C(=O)C(=NNC(=O)c2c(C)nc3sccn23)c2ccccc21` [Compound 6e, 6-Methyl-N′-(2-oxo-1-propylindolin-3-ylidene)imidazo[2,1-b]thiazole-5-carbohydrazide]: the melting point lay within 256 to 257 °C. Moreover, the IC50 in the data set on MCF-7 breast cell line was found to be 61.4 ± 3.15 µM.
`CCCCN1C(=O)/C(=N\NC(=O)c2c(C)nc3sccn23)c2cc(Br)ccc21` [Compound 6l, N′-(5-Romo-1-butyl-2-oxoindolin-3-ylidene)-6-methylimidazo[2,1-b]thiazole-5-carbohydrazide] registered a melting point of 237 to 238 °C. In addition, the IC50 in the data set with MCF-7 breast cell line was found to be 52.6 ± 2.36 µM.
The compound `Cc1nc2sccn2c1C(=O)NN=C1C(=O)Nc2ccc(Cl)cc21` [Compound 6c, N′-(5-Chloro-2-oxoindolin-3-ylidene)-6-methylimidazo[2,1-b]thiazole-5-carbohydrazide] came in with a melting point of 292 to 293 °C. Besides, in the data set with MCF-7 breast cell line (setting [2]), the IC50 came to 43.1 ± 3.69 µM.
As for `COc1ccc(-c2nc(N/N=C3/C(=O)Nc4ccc(Cl)cc43)c3ccccc3n2)cc1OC` [VIII], the IC50 in the data set with MCF-7 cell line (MCF-7 cancerous cell line) is 2100 nM.
In turn, `Cc1nc2sccn2c1NC(=O)Nc1ccc(Cl)cc1` [Compound 8e, 1-(4-Chlorophenyl)-3-(6-methylimidazo[2,1-b]thiazol-5-yl)urea] came in with a melting point of 285 to 286 °C. For the same compound, the IC50 in the data set with MCF-7 breast cell line (setting [2]) was 35.7 ± 3.32 µM.
Take `O=C1Nc2ccccc2/C1=N/N=C/c1ccc[nH]1` [VI]: the IC50 with MCF-7 cell line (MCF-7 cancerous cell line) was 6250 nM.
